From patent US20260306680A1, “RADIOLABELED COMPOUNDS TARGETING THE PROSTATE-SPECIFIC MEMBRANE ANTIGEN” (PROVINCIAL HEALTH SERVICES AUTHORITY, priority 2022, published 2026)
Read-outs that look alike come from different tables or passages of the source. One block for each compound: values may come before it.

Columns and labels:
[1] = system: glutamate carboxypeptidase II; conditions: cited from earlier work
[2] = Ex vivo biodistribution in mice bearing LNCaP tumor xenografts; design: species or system mouse (male NOD-scid IL2Rg^null (NSG)); conditions: mouse, iv, 1 h post-injection, mean ± SD
Description: All imaging and biodistribution studies used male NOD-scid IL2Rg^null (NSG) mice and conducted according to the guidelines established by the Canadian Council on Animal Care and approved by Animal Ethics Committee of the University of British Columbia. For tumor inoculations, mice were anesthetized via inhalation of 2% isoflurane in oxygen and implanted subcutaneously with 5×10^6 LNCaP cells below the left shoulder. Imaging and biodistribution studies were performed only after tumors grew to 5-8 mm in diameter.
For PET/CT imaging studies, approximately 5 MBq of the ^18F-labeled tracer was injected through the tail vein. While for ex vivo biodistribution studies, mice were injected with around 2 MBq of the ^18F-labeled tracer through the tail vein. Mice were allowed to recover and roam freely in the cages after injecting the tracer. At 45 min post-injection, imaging mouse were sedated again and positioned on the scanner. A 10 min CT scan was conducted first to allow for localization and attenuation correction for later reconstruction of PET images. A 10 min PET image was acquired following CT scan. Heating pads were used during the entire procedure to keep the mice warm and circulate the blood. At 1 h post-injection, all mice for biodistribution study were euthanized with blood drawn from heart, and all tissues of interest were collected, rinsed with PBS, blotted dry, weighed, and counted using an automated gamma counter. The uptake in each organ/tissue was normalized to the injected dose and expressed as the percentage of the injected dose per gram of tissue (% ID/g).
Representative maximum intensity projection PET images of ^18F-KLF1007-pyridine-BF3 and ^18F-KL01040 acquired at 1 h post-injection from LNCaP tumor-bearing mice is enumerated in Table 4 and shown in FIG. 1. Representative maximum intensity projection PET images of ^18F-KL01120 and ^18F-KL01130 acquired at 1 h post-injection from LNCaP tumor-bearing mice is also enumerated in Table 5 and shown in FIG. 2 (^18F-KL1120) and enumerated in Table 6 and shown in FIG. 3 (^18F-KL01130).

Compound: O=C(O)CC[C@H](NC(=O)N[C@@H](CCCCNC(=O)c1ccc(F)nc1)C(=O)O)C(=O)O [^18F-DCFPyL]
liver uptake ([1]; reduces sensitivity for detecting metastatic lesions in liver): high

tissue uptake at 1 h ([2]; adrenal glands, read-out: Adrenal Glands uptake): 1.05 ± 0.26 %ID/g
tissue uptake at 1 h ([2]; blood, read-out: Blood uptake): 1.96 ± 0.37 %ID/g
tissue uptake at 1 h ([2]; bone, read-out: Bone uptake): 0.6 ± 0.18 %ID/g
tissue uptake at 1 h ([2]; brain, read-out: Brain uptake): 0.11 ± 0.08 %ID/g
tissue uptake at 1 h ([2]; fat, read-out: Fat uptake): 0.61 ± 0.15 %ID/g
tissue uptake at 1 h ([2]; heart, read-out: Heart uptake): 0.56 ± 0.14 %ID/g
tissue uptake at 1 h ([2]; kidneys, read-out: Kidneys uptake): 33.2 ± 10.1 %ID/g
tissue uptake at 1 h ([2]; lacrimal glands, read-out: Lacrimal Glands uptake): 0.23 ± 0.06 %ID/g
tissue uptake at 1 h ([2]; liver, read-out: Liver uptake): 0.58 ± 0.15 %ID/g
tissue uptake at 1 h ([2]; lncap tumor, read-out: LNCaP Tumor uptake): 11.2 ± 2.06 %ID/g
tissue uptake at 1 h ([2]; lungs, read-out: Lungs uptake): 1.56 ± 0.4 %ID/g
tissue uptake at 1 h ([2]; muscle, read-out: Muscle uptake): 0.29 ± 0.06 %ID/g
tissue uptake at 1 h ([2]; pancreas, read-out: Pancreas uptake): 0.38 ± 0.05 %ID/g
tissue uptake at 1 h ([2]; salivary glands, read-out: Salivary Glands uptake): 0.79 ± 0.11 %ID/g
tissue uptake at 1 h ([2]; seminal glands, read-out: Seminal Glands uptake): 0.26 ± 0.06 %ID/g
tissue uptake at 1 h ([2]; small intestine, read-out: Small Intestine uptake): 2.54 ± 0.5 %ID/g
tissue uptake at 1 h ([2]; spleen, read-out: Spleen uptake): 0.83 ± 0.41 %ID/g
tissue uptake at 1 h ([2]; stomach, read-out: Stomach uptake): 0.2 ± 0.07 %ID/g
tissue uptake at 1 h ([2]; tail, read-out: Tail uptake): 1.31 ± 0.41 %ID/g
tissue uptake at 1 h ([2]; testes, read-out: Testes uptake): 0.47 ± 0.07 %ID/g
tissue uptake at 1 h ([2]; thyroid, read-out: Thyroid uptake): 0.6 ± 0.06 %ID/g
Compound: O=C(O)CCC[C@H](NC(=O)N[C@@H](CCCCNC(=O)[C@H](Cc1c2ccccc2cc2ccccc12)NC(=O)[C@H]1CC[C@H](CNC(=O)[C@H](CCCCNC(=O)c2ccc(F)nc2)NC(=O)CN(CC(=O)O)CC(=O)O)CC1)C(=O)O)C(=O)O [^18F-KL01040]

Compound: O=C(O)CC[C@H](NC(=O)N[C@@H](CCCCNC(=O)[C@H](Cc1ccc2ccccc2c1)NC(=O)c1ccc(CNC(=O)[C@H](CCC(=O)O)NC(=O)[C@H](CCC(=O)O)NC(=O)c2ccc(F)nc2)cc1)C(=O)O)C(=O)O [^18F-PSMA-1007]
nonspecific uptake level in most normal tissues ([1]; compared to ^18F-DCFPyL): even higher
